The numbers were not newly measured in US11318113B2, “Compounds for the treatment of diseases linked to mitochondrial reactive oxygen species (ROS) production” (OP2 DRUGS, priority 2015, dated 2022), which cites them from elsewhere.

For this data set, the system named is complex I. The following applies: Orr et al., 2013; cited from earlier work.

Molecules are shown by their SMILES.

With `O=[N+]([O-])c1ccc(Oc2ccc(S(=O)(=O)NC3CCCCC3)cc2)cc1` [N-cyclohexyl-4-(4-nitrophenoxy) benzenesulfonamide], the “activity of complex I as a component of the respiratory chain and oxidative phosphorylation” value was “does not modify”.
